Data from patent US11202854B2, “Disintegrin variants and uses thereof” (National Taiwan University, priority 2017, dated 2021).
Values after ≈ are worked out from the molar mass of the structure shown. Read-outs that look alike come from different tables or passages of the source. Positions of bridges follow the written chain, without caps; N, C: chain ends. Non-standard residues stand in square brackets, D forms with d. Residues, ends and D or L forms follow the SMILES beside them. hArg = N=C(N)NCCCC[C@H](N)C(=O)O; Mpa = O=C(O)CCS

Experiments:
platelets [1] = experiment: Ex vivo collagen-induced platelet aggregation response; format: in vivo, mouse; conditions: FIG. 1 panels B and C
Tail bleeding time = format: in vivo, mouse; conditions: 0.18 mg/Kg, mice
Protocol: Male ICR mice weighing 20-30 g were used in all studies. Animals were allowed to access food and water ad libitum under controlled temperature (20±1° C.) and humidity (55%±5%). The animal experimental protocols were approved by the Laboratory Animal Use Committee of College of Medicine, National Taiwan University.
Male ICR mice were intravenously injected through a lateral tail vein of the mouse with agents. A sharp cut of 2 mm segment from the distal tail was made 5 min after injection. The amputated tail was immediately placed into a tube filled with isotonic saline at 37° C. Bleeding time was recorded for a maximum of 10 min and the end point was the arrest of bleeding.

platelets [2] = tested on: platelets
Protocol: Disintegrin and its variants of Example 1 were subject to test for their abilities in suppressing platelet aggregation mediated by αIIbβ3. Briefly, venous blood samples from healthy donors were collected and platelet-rich plasma was prepared therefrom. The platelet-rich plasma was then incubated with the stimulant (e.g., collagen or AP2) that triggered plug formation, then with the disintegrin and/or its variants of Example 1.

platelets [3] = experiment: ADP-induced platelet aggregation in platelet-rich plasma; format: cell-based, human
Protocol: (§1) Blood was collected from healthy volunteers who had not taken any medication for two weeks prior to the study. Informed consents were obtained from each and every participants, and the study was approved by the institutional review board of National Taiwan University Hospital. Preparation of human PS was performed in accordance with procedures described previously (Huang et al., Experimental haemtology. 2008 36(12), 1704-1713).
(§2) Disintegrin and its variants of Example 1 were subject to test for their abilities in suppressing platelet aggregation mediated by αIIbβ3. Briefly, venous blood samples from healthy donors were collected and platelet-rich plasma was prepared therefrom. The platelet-rich plasma was then incubated with the stimulant (e.g., collagen or […]) that triggered plug formation, then with the disintegrin and/or its variants of Example 1.

integrin αIIbβ3 = target: T1, integrin αIIbβ3 (Homo sapiens, UniProt P05106+P08514); experiment: Cell adhesion assay: CHO-αIIbβ3 cells to fibrinogen; format: cell-based; conditions: Table 3
T1 construct: host or cells: CHO (Chinese hamster ovary) cells
T1 sequence (P08514 32-887 limits assumed): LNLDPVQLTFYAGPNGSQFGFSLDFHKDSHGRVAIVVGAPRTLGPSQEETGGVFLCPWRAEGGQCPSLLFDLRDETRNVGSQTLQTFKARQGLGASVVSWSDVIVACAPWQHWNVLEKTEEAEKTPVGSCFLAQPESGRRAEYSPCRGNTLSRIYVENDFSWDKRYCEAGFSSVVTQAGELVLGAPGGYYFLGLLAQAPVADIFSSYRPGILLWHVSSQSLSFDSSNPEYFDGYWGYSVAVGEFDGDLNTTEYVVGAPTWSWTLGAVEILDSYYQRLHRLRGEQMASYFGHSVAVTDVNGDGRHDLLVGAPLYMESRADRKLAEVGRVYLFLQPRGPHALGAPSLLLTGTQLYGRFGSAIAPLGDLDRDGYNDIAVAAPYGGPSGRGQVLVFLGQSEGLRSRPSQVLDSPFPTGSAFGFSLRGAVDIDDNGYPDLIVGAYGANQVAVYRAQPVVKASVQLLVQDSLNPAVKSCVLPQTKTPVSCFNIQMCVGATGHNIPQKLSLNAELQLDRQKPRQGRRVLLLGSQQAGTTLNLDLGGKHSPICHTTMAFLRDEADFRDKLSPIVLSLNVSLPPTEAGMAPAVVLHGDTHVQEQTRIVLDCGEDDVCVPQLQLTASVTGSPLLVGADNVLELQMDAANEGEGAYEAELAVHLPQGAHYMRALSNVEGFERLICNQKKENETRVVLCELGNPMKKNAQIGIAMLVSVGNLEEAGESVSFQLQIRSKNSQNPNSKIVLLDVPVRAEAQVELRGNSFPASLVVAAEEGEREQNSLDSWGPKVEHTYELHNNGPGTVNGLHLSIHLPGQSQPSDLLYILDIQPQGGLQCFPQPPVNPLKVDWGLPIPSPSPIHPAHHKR
T1 sequence (P08514 891-1039 partner limits assumed): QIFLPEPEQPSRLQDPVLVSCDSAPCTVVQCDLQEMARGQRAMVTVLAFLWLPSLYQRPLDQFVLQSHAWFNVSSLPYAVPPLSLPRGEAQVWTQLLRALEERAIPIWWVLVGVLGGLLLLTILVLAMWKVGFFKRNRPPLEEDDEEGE
T1 sequence (P05106 27-788): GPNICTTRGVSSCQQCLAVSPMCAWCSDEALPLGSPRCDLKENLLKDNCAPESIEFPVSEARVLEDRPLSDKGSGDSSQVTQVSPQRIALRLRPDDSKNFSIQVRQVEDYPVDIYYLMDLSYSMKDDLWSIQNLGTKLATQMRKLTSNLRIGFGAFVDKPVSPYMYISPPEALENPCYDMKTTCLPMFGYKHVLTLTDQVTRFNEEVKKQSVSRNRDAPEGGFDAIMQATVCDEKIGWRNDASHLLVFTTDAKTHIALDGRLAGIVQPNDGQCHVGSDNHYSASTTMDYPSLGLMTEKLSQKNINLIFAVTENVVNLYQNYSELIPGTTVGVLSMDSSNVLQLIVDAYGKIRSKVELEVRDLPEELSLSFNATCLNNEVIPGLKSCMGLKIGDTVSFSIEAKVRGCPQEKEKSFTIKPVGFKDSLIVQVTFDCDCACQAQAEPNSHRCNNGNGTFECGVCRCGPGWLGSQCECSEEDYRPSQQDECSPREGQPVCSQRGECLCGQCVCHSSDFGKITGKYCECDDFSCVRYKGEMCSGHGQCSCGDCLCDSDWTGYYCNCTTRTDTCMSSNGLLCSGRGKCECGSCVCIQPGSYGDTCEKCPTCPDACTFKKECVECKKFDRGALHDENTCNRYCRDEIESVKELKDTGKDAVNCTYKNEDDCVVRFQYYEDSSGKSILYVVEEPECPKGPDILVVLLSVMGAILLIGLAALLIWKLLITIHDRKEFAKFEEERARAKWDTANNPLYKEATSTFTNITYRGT
Protocol: (§3) A cell adhesion assay was used to determine the inhibitory activity of Rho, TMV, and their variants and was conducted according to previously described protocols. 96-well microtiter plates (Costar; Corning) were coated with 100 μL PBS buffer containing 200 μg/mL fibrinogen or 50 μg/mL fibronectin, and incubated overnight at 4° C. Non-specific protein binding sites were blocked by incubating each well with 200 μL of heat-denatured 1% bovine serum albumin (BSA) (Calbiochem) at room temperature for 1.5 h. The heat-denatured BSA was discarded and each well was washed twice with 200 μL PBS.
(§4) Chinese hamster ovary (CHO) cells that expressed integrins αvβ3 (CHO-αvβ3) and αIIbβ3 (CHO-αIIbβ3) were kindly provided by Dr. Y. Takada (Scripps Research Institute) and maintained in Dulbecco's modified Eagle's medium (18, 27). Human erythroleukemia K562 cell was purchased from ATCC and cultured in Roswell Park Memorial Institute (RPMI)—1640 medium containing 10% fetal bovine serum (FBS). Harvested K562 cells were resuspended in RPMI-1640 medium containing 5% FBS. […]
(§5) The adhesions of CHO-αIIbβ3 cells to fibrinogen, CHO-αvβ3 cells to fibrinogen, and K562 cells to fibronectin were used to determine the inhibitory activities of tested protein to integrins αIIbβ3, αvβ3, and α5β1. […] The resulting absorbance was read at 600 nm and the readings were correlated with the number of adhering cells. […]

integrin αvβ3 = experiment: Cell adhesion assay: CHO-αvβ3 cells to fibrinogen; format: cell-based; conditions: CHO-αvβ3 cells to immobilized fibrinogen
Protocol: as §3, §4, §5

platelets [4] = experiment: Platelet aggregation (inducer not stated); format: cell-based, human; conditions: Table 4; inducer not given
Protocol: as §1, §2

Molecule | Collagen-induced platelet aggregation response (platelets [1]) | Tail bleeding time (Tail bleeding time) | IC50 on collagen-induced platelet aggregation (platelets [2]; in vitro, FIG. 1 panel A) | IC50 (platelets [3]) | IC50 (integrin αIIbβ3) | IC50 (integrin αvβ3) | IC50 (platelets [4]) | IC50 (platelets [2]; read-out: Platelet aggregation IC50 (nM), Collagen, collagen-induced)
N=C(N)NCCCC[C@@H]1NC(=O)CCSSC[C@@H](C(N)=O)NC(=O)[C@@H]2CCCN2C(=O)[C@H](Cc2c[nH]c3ccccc23)NC(=O)[C@H](CC(=O)O)NC(=O)CNC1=O [eptifibatide] ([Mpa][hArg]GDWPC-NH2; disulfide 1-7) | significantly suppressed | significantly prolong | 0.75 µg/mL (≈ 0.901 µM) | – | – | – | – | –
Rhodostomin | – | – | – | 81.5 nM | 59.5 nM | 13 ± 5.7 nM | 83.2 ± 10.4 nM | 66.8 nM
